Assay [1] deals with Serine/threonine-protein kinase PAK 1 (Homo sapiens) (UniProt Q13153). Particulars: at 10 µM.
The target in assay [2] is T1, Receptor-type tyrosine-protein kinase FLT3 (Homo sapiens, UniProt P36888).
T1 sequence (P36888 whole entry): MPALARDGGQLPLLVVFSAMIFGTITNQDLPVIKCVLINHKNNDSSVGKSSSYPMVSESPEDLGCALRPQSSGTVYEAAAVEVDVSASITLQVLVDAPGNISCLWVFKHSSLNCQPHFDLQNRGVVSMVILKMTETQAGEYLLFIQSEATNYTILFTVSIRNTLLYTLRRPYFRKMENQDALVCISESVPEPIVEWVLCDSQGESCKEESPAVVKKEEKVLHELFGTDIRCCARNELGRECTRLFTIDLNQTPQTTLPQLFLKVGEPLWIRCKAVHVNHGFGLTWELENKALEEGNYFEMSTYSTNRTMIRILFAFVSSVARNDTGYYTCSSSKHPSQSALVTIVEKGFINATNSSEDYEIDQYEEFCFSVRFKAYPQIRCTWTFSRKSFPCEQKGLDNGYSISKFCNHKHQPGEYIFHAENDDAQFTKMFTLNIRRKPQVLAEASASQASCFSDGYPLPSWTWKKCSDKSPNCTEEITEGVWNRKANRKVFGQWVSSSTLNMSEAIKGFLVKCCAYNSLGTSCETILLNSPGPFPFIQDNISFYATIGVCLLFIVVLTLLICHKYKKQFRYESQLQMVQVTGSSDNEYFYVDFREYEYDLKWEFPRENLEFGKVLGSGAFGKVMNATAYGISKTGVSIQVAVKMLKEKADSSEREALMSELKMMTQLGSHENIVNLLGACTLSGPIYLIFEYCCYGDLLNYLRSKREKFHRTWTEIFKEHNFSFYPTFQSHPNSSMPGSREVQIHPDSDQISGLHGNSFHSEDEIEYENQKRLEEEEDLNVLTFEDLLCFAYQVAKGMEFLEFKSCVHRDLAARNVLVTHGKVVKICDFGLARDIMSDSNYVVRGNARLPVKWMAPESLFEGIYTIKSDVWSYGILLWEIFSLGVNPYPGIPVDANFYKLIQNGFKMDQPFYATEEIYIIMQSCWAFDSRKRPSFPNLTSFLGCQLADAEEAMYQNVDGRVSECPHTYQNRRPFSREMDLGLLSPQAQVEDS
The assay can be described thus: Selectivity interaction (NanoBRET assay (HEK293T cells)) EUB0001559a FLT3. Format: cell-based, HEK-293T. In general terms: BRET reads energy transfer from a luciferase to a nearby fluorophore.

Assay [3] concerns the target T2, Serine/threonine-protein kinase TAO3 (Homo sapiens) (UniProt Q9H2K8).
T2 sequence (whole entry): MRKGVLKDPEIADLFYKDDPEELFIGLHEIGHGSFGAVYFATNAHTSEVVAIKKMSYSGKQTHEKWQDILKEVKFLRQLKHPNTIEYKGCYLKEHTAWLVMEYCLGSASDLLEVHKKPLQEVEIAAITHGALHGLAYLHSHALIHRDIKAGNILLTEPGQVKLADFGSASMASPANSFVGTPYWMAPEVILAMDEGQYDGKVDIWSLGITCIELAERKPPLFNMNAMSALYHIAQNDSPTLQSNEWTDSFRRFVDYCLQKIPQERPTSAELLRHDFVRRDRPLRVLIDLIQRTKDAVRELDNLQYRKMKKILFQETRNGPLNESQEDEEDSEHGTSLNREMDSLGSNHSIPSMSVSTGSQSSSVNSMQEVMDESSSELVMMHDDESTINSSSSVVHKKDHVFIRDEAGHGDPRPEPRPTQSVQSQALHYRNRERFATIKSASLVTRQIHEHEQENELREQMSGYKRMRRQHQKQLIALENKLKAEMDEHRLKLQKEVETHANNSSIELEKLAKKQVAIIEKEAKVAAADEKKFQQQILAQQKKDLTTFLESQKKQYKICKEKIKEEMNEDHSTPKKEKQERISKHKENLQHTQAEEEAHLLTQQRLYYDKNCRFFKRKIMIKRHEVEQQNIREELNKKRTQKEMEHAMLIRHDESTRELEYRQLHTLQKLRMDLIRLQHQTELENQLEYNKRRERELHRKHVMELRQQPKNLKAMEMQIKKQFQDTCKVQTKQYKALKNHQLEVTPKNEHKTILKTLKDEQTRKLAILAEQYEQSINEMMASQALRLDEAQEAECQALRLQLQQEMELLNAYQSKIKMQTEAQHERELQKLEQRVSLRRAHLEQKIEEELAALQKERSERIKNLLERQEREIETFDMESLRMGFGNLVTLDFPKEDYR
Briefly: Selectivity interaction (KinomeScan (DiscoverX)) EUB0000229b TAOK3. Particulars: at 10 µM.

Structures are written as SMILES.

Serine/threonine-protein kinase PAK 1 (Homo sapiens), sequence (Q13153 whole entry): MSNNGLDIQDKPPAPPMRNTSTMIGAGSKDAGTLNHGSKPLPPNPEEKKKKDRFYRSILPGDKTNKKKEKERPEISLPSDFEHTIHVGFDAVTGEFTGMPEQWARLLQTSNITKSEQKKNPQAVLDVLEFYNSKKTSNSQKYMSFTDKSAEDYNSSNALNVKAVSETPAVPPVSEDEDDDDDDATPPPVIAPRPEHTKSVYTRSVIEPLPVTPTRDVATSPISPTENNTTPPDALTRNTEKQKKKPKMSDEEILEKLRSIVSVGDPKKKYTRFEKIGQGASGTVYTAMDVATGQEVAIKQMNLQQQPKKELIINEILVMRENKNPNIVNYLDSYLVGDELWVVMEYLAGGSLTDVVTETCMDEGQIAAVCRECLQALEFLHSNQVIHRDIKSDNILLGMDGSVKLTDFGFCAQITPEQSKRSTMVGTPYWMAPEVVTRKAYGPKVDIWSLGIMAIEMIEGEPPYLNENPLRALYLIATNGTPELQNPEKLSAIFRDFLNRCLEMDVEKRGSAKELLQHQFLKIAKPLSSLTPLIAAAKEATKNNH

In assay [1], `CCN(CC)CCCCNc1ncc2cc(-c3cc(OC)cc(OC)c3)c(NC(=O)NC(C)(C)C)nc2n1` had a % of control of 100%.

The term EC50 denotes the concentration at which the effect is half-maximal. Low readings indicate higher potency in that assay, high ones lower potency in that assay. On to `CN(C(=O)c1cnn2cccnc12)c1cc2c(cc1N1CCOCC1)C(=O)N(C[C@@H](F)C(C)(C)O)C2`, for which, in assay [2], the half-maximal effective concentration (EC50) turned out to be 3.6 mM. Regarding `COc1cc(N(C)c2ccnc3ccc(C(F)(F)F)cc23)cc(OC)c1OC`, the % binding in assay [3] was determined as 80%.

For the origin of these results see ChEMBL document CHEMBL5465560, “Selectivity Literature for EUbOPEN Chemogenomic Library” (2024).
